Assay results reported in patent publication US10640495B2, “Heterocycle derivatives having TrkA inhibitory activity” (Shionogi & Co., Ltd., priority 2015, dated 2020).
Read-outs that look alike come from different tables or passages of the source. Each block holds one molecule with its values, some of them ahead of it.

Biological target: human TrkA (Homo sapiens (Human), UniProt P04629)
Test: Human TrkA inhibition assay (Test Example 2)
Assay type: biochemical
How it was run: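 Mobility-shift readout of phosphorylated versus unphosphorylated fluorescent peptide gave conversion ratio, normalized to DMSO and no-enzyme wells; IC50 by logistic fit of 10- or 15-point 3-fold dilutions. Conditions: 1 nmol/L enzyme, 15 min compound preincubation, then 500 μmol/L ATP plus 1.5 μmol/L peptide, 120 min, 37 °C.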

[1] = Table 157, human TrkA inhibition, read-out: IC50
[2] = Table 154, human TrkA inhibition, read-out: IC50
[3] = Table 153, human TrkA inhibition, read-out: IC50
[4] = Table 155, human TrkA inhibition, read-out: IC50
[5] = human TrkA 1 nmol/L, ATP 500 μmol/L, 120 min at 37° C., read-out: IC50 values (TrkA phosphorylation inhibition)
[6] = Table 152, human TrkA inhibition, read-out: IC50_nM
[7] = Table 156, human TrkA inhibition, read-out: IC50

human TrkA, sequence (P04629 440-796): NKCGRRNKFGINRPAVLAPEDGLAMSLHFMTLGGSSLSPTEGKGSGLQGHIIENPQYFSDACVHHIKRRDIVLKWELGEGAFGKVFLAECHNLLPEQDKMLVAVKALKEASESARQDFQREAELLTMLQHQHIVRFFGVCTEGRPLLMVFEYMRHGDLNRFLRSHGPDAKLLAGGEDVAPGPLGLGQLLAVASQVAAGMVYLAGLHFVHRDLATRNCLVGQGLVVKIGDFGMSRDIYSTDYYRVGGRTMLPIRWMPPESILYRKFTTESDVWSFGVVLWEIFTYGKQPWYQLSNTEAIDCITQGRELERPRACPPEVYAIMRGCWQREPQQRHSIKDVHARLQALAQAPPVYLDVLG

SMILES: COCCN1C[C@@H](NC(=O)Nc2c(C)c(-c3cnc(N4CCN(C)[C@H](C)C4)nc3)nn2-c2ccccc2)[C@H](c2ccnc(F)c2)O1 [Compound I-592]
IC50 [1]: < 100 nM

SMILES: Cc1c(-c2cnc3c(cnn3C)c2)nn(-c2ccccc2)c1NC(=O)N[C@@H]1CN(Cc2ccn[nH]2)O[C@H]1c1ccc(F)c(F)c1 (racemic) [Compound I-203]
IC50 [2]: 100 to 1000 nM

SMILES: COCCN1C[C@@H](NC(=O)Nc2c(C)c(-c3cnc4nn(CC(F)(F)F)cc4c3)nn2-c2ccccc2)[C@H](c2ccnc(F)c2)O1 (racemic) [Compound I-243]
IC50 [2]: < 100 nM

SMILES: COCCN1C[C@@H](NC(=O)Nc2c(Br)c(-c3cnc(OC)nc3)nn2-c2ccccc2)[C@H](c2ccnc(F)c2)O1 [Compound I-680]
IC50 [1]: < 100 nM

SMILES: COCCN1C[C@@H](NC(=O)Nc2c(C)c(-c3cnc(C(N)=O)c(C)c3)nn2-c2ccccc2)[C@H](c2cnc(F)c(F)c2)O1 [Compound I-252]
IC50 [2]: < 100 nM

SMILES: COCCN1C[C@@H](NC(=O)Nc2c(C)c(-c3cnn(C)c3)nn2-c2ccccc2)[C@H](c2ccc(F)c(F)c2)N1 (racemic) [Compound I-10]
IC50 [5]: 170 nM

SMILES: COCCN1C[C@@H](NC(=O)Nc2c(C)c(-c3cnc4c(c3)OCCN4C(=O)OC(C)(C)C)nn2-c2ccccc2)[C@H](c2ccnc(F)c2)O1 (racemic) [Compound I-280]
IC50 [2]: < 100 nM

SMILES: COCCN1C[C@@H](NC(=O)Nc2c(C)c(-c3cnc4c(c3)c(N=S(C)(C)=O)nn4C)nn2-c2ccccc2)[C@H](c2ccc(F)c(F)c2)O1 [Compound I-298]
IC50 [5]: 0.6 nM

SMILES: COCCN1C[C@@H](NC(=O)Nc2c(C)c(-c3cnn(C)c3)nn2-c2ccccc2)[C@H](c2ccc(F)c(F)c2)O1 (racemic) [Compound I-8]
IC50 [6]: < 100 nM

SMILES: COCCN1C[C@@H](NC(=O)Nc2cc(-c3cnc(OC)c(C(=O)NC4CCOCC4)c3)nn2C)[C@H](c2ccnc(F)c2)O1 (racemic) [Compound I-94]
IC50 [3]: > 1000 nM

SMILES: COCCN1C[C@@H](NC(=O)Nc2c(C)c(-c3cnc4c(cnn4C)c3)nn2-c2ccccc2)[C@H](c2cnc(F)c(F)c2)O1 (racemic) [Compound I-67]
IC50 [3]: < 100 nM

SMILES: COCC[C@@H]1C[C@@H](NC(=O)Nc2c(C)c(-c3cnc(OC)nc3)nn2-c2ccccc2)[C@H](c2ccnc(F)c2)O1 [Compound I-273]
IC50 [5]: 4.7 nM

SMILES: CCN1C[C@H](NC(=O)Nc2c(C)c(OCC3CCN(C)CC3)nn2-c2ccccc2)[C@@H](c2ccc(F)c(F)c2)O1 [Compound I-535]
IC50 [7]: > 1000 nM

SMILES: COCC[C@@H]1C[C@@H](NC(=O)Nc2c(C)c(-c3ccc(N=S(C)(C)=O)nc3)nn2-c2ccccc2)[C@H](c2ccc(F)c(F)c2)O1 (racemic) [Compound I-185]
IC50 [2]: < 100 nM

SMILES: COCCN1C[C@@H](NC(=O)Nc2c(C)c(-c3ccc(-c4nn[nH]n4)nc3)nn2-c2ccccc2)[C@H](c2ccc(F)c(F)c2)O1 (racemic) [Compound I-145]
IC50 [5]: 0.87 nM

SMILES: COCCC1C[C@@H](NC(=O)Nc2c(C)c(-c3ccc4c(cnn4C)c3)nn2-c2ccccc2)[C@H](c2ccccc2)O1 (stereo partly drawn) [Compound I-11]
IC50 [6]: < 100 nM

SMILES: COCCN1C[C@@H](NC(=O)Nc2c(C)c(-c3cnc4c(c3)COC4=O)nn2-c2ccccc2)[C@H](c2ccnc(F)c2)O1 (racemic) [Compound I-259]
IC50 [2]: < 100 nM

SMILES: COCCN1C[C@@H](NC(=O)Nc2c(C)c(-c3cnc(C(N)=O)c(F)c3)nn2-c2ccccc2)[C@H](c2cnc(F)c(F)c2)O1 (racemic) [Compound I-311]
IC50 [2]: < 100 nM

SMILES: COCCN1C[C@@H](NC(=O)Nc2c(C)c(-c3cnc4c(c3)nnn4C)nn2-c2ccccc2)[C@H](c2ccccc2)O1 (racemic) [Compound I-162]
IC50 [3]: < 100 nM

SMILES: COCCN1C[C@@H](NC(=O)Nc2c(C)c(-c3ccc(N=S(C)(C)=O)nc3)nn2-c2ccccc2)[C@H](c2ccc(F)c(F)c2)O1 (racemic) [Compound I-66]
IC50 [5]: 1.6 nM

SMILES: COCCN1C[C@@H](NC(=O)Nc2c(C)c(-c3ccnc(CCN(C)C)c3)nn2-c2ccccc2)[C@H](c2ccc(F)c(F)c2)O1 [Compound I-643]
IC50 [1]: < 100 nM

SMILES: COCCN1C[C@@H](NC(=O)Nc2c(C)c(-c3cnc(C(=O)NC4CCOCC4)c(C)c3)nn2-c2ccccc2)[C@H](c2ccnc(F)c2)O1 (racemic) [Compound I-171]
IC50 [3]: < 100 nM

SMILES: COCCN1C[C@@H](NC(=O)Nc2c(C)c(OC3CCN(C)CC3)nn2-c2ccccc2)[C@H](c2ccc(F)c(F)c2)O1 [Compound I-603]
IC50 [1]: < 100 nM

SMILES: COCCN1C[C@@H](NC(=O)Nc2c(C)c(-c3cnc4c(cnn4C)c3)nn2-c2ccc(F)cc2)[C@H](c2ccnc(F)c2)O1 (racemic) [Compound I-223]
IC50 [2]: < 100 nM

SMILES: COCCN1C[C@@H](NC(=O)Nc2c(C)c(-c3cnc4c(c3)CC(=O)N4C)nn2-c2ccccc2)[C@H](c2cnc(F)c(F)c2)O1 (racemic) [Compound I-303]
IC50 [5]: 1.5 nM

SMILES: COCCN1C[C@@H](NC(=O)Nc2c(C)c(-c3cnc(N4CC5(CCOCC5)C4)nc3)nn2-c2ccccc2)[C@H](c2ccnc(F)c2)O1 (racemic) [Compound I-408]
IC50 [4]: < 100 nM

SMILES: COCCN1C[C@H](NC(=O)Nc2c(C)c(C3=CCN(C(C)=O)CC3)nn2-c2ccccc2)[C@@H](c2ccc(F)c(F)c2)O1 [Compound I-38]
IC50 [6]: > 1000 nM

More lines, now with the values ahead:

IC50 [3]: < 100 nM
SMILES: COCCN1C[C@@H](NC(=O)Nc2c(C)c(-c3cccc(C(=O)OC(C)(C)C)c3)nn2-c2ccccc2)[C@H](c2ccc(F)c(F)c2)O1 (racemic) [Compound I-50]

IC50 [4]: < 100 nM
SMILES: COCCN1C[C@@H](NC(=O)Nc2c(C)c(-c3cc(C(=O)NC(C)(C)C)c(=O)n(C)c3)nn2-c2ccccc2)[C@H](c2ccnc(F)c2)O1 (racemic) [Compound I-389]

IC50 [2]: < 100 nM
SMILES: COCC[C@@H]1C[C@@H](NC(=O)Nc2c(C)c(-c3cnc(N4CC(O)C4)nc3)nn2-c2ccccc2)[C@H](c2ccc(F)c(F)c2)O1 (racemic) [Compound I-242]

IC50 [2]: < 100 nM
SMILES: COCCN1C[C@@H](NC(=O)Nc2c(C)c(-c3cnc4c(c3)ncn4CC(F)(F)F)nn2-c2ccccc2)[C@H](c2ccnc(F)c2)O1 (racemic) [Compound I-240]

IC50 [5]: 5.8 nM
SMILES: COCCN1C[C@@H](NC(=O)Nc2c(Cl)c(-c3cnc(OC)nc3)nn2-c2ccccc2)[C@H](c2ccnc(F)c2)O1 (racemic) [Compound I-674]

IC50 [4]: < 100 nM
SMILES: COCCN1C[C@@H](NC(=O)Nc2c(C)c(-c3cnc4c(c3)CCN4)nn2-c2ccccc2)[C@H](c2ccnc(F)c2)O1 (racemic) [Compound I-351]

IC50 [5]: 0.52 nM
SMILES: CNc1ncc(-c2nn(-c3ccccc3)c(NC(=O)N[C@@H]3CN(CCOC)O[C@H]3c3cnc(F)c(F)c3)c2C)cn1 [Compound I-135]

IC50 [1]: < 100 nM
SMILES: COCCN1C[C@@H](NC(=O)Nc2c(C)c(OC3CCNCC3)nn2-c2ccccc2)[C@H](c2ccc(F)c(F)c2)O1 [Compound I-602]

IC50 [4]: < 100 nM
SMILES: COCCN1C[C@@H](NC(=O)Nc2c(C)c(-c3cnc4c(c3)N3C(=O)OCC3CO4)nn2-c2ccccc2)[C@H](c2ccnc(F)c2)O1 (mixture of isomers) [Compound I-326]

IC50 [7]: < 100 nM
SMILES: COCCN1C[C@@H](NC(=O)Nc2c(C)c(OCC3CN(C)CCO3)nn2-c2ccccc2)[C@H](c2ccc(F)c(F)c2)O1 (stereo partly drawn) [Compound I-580]

IC50 [6]: < 100 nM
SMILES: COCCN1C[C@@H](NC(=O)Nc2c(C)c(-c3ccc(C(=O)O)cc3)nn2-c2ccccc2)[C@H](c2ccc(F)c(F)c2)O1 (racemic) [Compound I-35]

IC50 [5]: 22 nM
SMILES: COc1ncc(-c2nn(-c3ccccc3)c(NC(=O)N[C@@H]3CN(CC(F)F)O[C@H]3c3ccc(F)c(F)c3)c2C)cn1 (racemic) [Compound I-526]
